In US20240269139A1, “COMPOUNDS FOR TARGETED PROTEIN DEGRADATION OF KINASES” (DANA-FARBER CANCER INSTITUTE, INC., priority 2020, published 2024):
Where two headings read alike, the source gives them in different places.

Tests used:
Format in all cases: cell-based
[1] = target: protein kinases (human kinome) (Homo sapiens, UniProt P06239)
[2] = target: T1, protein kinases (human kinome) (Homo sapiens, UniProt P42680); conditions: TEC (P42680)
T1 sequence (P42680 1-631): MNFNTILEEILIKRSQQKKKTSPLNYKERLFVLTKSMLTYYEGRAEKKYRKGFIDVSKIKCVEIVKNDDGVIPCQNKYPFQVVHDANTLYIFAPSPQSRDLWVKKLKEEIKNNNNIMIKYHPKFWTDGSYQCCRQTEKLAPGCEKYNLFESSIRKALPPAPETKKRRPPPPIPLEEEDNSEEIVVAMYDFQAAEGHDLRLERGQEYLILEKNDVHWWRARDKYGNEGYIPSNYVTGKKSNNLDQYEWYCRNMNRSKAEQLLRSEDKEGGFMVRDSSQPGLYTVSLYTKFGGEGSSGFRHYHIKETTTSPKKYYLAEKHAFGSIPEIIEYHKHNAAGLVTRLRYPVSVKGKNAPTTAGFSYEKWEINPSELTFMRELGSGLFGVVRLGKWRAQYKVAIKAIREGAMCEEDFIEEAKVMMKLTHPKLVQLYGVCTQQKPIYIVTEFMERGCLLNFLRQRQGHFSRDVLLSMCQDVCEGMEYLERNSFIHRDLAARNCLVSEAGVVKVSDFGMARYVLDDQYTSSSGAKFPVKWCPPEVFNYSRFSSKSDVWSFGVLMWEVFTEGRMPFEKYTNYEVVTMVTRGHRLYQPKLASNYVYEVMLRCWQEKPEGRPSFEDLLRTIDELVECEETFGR

[3] = target: protein kinases (human kinome) (Homo sapiens, UniProt P21127)
Chain of protein kinases (human kinome) (Homo sapiens, UniProt P21127) (P21127 whole entry): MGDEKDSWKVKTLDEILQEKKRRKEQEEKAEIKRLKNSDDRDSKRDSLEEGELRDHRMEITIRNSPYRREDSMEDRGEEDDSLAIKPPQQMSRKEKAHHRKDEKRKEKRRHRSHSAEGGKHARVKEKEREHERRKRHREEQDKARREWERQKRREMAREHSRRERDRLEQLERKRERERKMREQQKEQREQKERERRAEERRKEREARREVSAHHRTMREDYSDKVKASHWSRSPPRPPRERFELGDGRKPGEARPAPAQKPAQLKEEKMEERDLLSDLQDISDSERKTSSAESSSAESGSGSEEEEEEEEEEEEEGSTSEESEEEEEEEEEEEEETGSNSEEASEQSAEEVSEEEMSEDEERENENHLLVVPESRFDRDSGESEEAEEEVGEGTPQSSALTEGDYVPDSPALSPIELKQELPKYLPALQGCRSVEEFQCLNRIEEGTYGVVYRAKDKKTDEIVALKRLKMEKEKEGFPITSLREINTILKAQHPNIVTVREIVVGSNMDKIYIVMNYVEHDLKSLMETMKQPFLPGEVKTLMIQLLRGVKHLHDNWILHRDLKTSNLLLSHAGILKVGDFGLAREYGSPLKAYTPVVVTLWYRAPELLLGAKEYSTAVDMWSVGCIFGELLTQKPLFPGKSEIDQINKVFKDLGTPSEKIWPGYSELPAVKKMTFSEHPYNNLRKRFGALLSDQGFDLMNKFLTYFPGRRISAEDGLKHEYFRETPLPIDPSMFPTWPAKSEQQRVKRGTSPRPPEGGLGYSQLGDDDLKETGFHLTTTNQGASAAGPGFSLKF

[4] = target: protein kinases (human kinome) (Homo sapiens, UniProt P53350); conditions: PLK1 P53350
Chain of protein kinases (human kinome) (Homo sapiens, UniProt P53350) (P53350 whole entry): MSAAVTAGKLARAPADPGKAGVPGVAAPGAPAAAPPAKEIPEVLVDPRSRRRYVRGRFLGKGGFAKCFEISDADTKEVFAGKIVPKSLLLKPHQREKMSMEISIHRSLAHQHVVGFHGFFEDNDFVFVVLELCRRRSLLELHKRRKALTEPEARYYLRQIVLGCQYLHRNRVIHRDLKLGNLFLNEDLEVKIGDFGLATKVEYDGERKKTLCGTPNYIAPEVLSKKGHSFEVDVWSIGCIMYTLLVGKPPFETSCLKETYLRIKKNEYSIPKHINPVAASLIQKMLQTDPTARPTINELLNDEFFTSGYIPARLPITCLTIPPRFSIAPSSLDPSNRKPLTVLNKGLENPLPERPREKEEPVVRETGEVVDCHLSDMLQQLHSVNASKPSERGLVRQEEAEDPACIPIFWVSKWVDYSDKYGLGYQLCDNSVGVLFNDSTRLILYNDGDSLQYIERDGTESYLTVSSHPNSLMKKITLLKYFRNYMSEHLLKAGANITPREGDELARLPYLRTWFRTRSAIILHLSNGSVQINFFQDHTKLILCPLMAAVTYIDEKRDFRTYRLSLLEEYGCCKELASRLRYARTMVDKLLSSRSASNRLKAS

[5] = target: protein kinases (human kinome) (Homo sapiens, UniProt Q13164); conditions: MAPK7 (Q13164-1)
Chain of protein kinases (human kinome) (Homo sapiens, UniProt Q13164) (Q13164 whole entry): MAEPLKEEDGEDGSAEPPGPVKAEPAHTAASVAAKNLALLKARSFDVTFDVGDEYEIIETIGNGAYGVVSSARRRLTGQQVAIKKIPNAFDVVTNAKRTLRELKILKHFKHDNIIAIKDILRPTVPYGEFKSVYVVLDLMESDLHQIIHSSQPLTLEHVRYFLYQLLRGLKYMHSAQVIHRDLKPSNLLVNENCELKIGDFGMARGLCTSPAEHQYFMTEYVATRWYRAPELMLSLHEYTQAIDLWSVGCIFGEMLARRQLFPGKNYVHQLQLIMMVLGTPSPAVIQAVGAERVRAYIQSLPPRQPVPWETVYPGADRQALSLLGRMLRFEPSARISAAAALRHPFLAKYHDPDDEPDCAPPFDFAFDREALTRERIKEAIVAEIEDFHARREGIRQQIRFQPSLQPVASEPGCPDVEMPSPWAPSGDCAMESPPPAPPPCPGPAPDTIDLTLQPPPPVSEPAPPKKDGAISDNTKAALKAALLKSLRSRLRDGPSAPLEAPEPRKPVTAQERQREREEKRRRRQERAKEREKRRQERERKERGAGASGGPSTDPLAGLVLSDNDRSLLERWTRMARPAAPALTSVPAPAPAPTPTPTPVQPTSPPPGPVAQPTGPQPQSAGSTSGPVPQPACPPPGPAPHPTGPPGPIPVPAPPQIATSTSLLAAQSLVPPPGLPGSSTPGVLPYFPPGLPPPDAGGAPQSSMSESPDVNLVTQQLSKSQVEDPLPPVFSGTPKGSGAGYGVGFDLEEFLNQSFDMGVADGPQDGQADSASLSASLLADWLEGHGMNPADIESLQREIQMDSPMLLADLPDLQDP

[6] = target: protein kinases (human kinome) (Homo sapiens, UniProt P06493); conditions: CDK1 P06493
Chain of protein kinases (human kinome) (Homo sapiens, UniProt P06493) (P06493 whole entry): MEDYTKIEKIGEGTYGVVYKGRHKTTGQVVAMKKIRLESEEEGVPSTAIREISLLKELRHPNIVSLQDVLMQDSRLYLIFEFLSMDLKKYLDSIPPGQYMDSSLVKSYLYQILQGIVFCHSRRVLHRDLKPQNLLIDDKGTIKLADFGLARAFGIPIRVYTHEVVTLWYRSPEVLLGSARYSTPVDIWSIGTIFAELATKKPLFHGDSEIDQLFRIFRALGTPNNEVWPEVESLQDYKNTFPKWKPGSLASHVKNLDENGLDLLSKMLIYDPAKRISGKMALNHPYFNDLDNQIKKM

[7] = LCK P06239-1, experiment wp160, 4 hr
[8] = LCK, accession P06239-1, experiment wp160, 4 hr, direction of change down
[9] = experiment wp107, direction down
[10] = CDK11B P21127-1, experiment wp045
[11] = CDK11B P21127-1, experiment wp105
[12] = CDK11B P21127-1, experiment wp117
[13] = CDK11B P21127-1, experiment wp160, 4 hr
[14] = CDK11B P21127-1, experiment wp160, 8 hr
[15] = CDK11B P21127-1, experiment wp172
[16] = CDK11B P21127-1, experiment wp168
[17] = LCK, accession P06239-1, experiment wp081, direction of change down
[18] = experiment wp137, direction down

Chain of protein kinases (human kinome) (Homo sapiens, UniProt P06239) (P06239 whole entry): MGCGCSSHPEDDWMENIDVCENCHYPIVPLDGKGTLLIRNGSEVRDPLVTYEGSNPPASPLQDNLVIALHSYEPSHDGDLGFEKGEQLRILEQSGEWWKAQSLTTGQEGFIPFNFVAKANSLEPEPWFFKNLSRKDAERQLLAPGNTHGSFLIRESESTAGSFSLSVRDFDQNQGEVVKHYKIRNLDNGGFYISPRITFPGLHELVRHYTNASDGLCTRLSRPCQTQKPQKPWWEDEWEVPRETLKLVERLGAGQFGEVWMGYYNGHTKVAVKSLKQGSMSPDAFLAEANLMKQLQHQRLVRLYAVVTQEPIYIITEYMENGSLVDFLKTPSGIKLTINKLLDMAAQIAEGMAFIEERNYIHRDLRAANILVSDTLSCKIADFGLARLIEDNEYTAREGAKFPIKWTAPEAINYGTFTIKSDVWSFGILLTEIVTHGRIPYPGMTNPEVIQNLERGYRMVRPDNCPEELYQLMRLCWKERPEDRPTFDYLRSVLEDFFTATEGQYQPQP

SMILES: Cc1ccc(NC(=O)c2cccc(C(F)(F)F)c2)cc1N1Cc2cnc(Nc3ccc(N4CCN(Cc5cn(CCCCCOc6cccc7c6C(=O)N(C6CCC(=O)NC6=O)C7=O)nn5)CC4)nc3)nc2N(C)C1=O (stereo not shown) [DB0646, N-(3-(7-((6-(4-((1-(5-((2-(2,6-Dioxopiperidin-3-yl)-1,3-dioxoisoindolin-4-yl)oxy)pentyl)-1H-1,2,3-triazol-4-yl)methyl)piperazin-1-v)pyridin-3-yl)amino)-1-methyl-2-oxo-1,4-dihydropyrimido[4,5-d]pyrimidin-3(2H)-yl)-4-methylphenyl)-3-(trifluoromethyl)benzamide]
- logFC LCK [1, 7]: −0.4575
- logFC LCK ([1]; LCK P06239-1, experiment wp160, 8 hr): −0.5386
- logFC LCK [1, 8]: −0.4575
- logFC LCK ([1]; LCK, accession P06239-1, experiment wp160, 8 hr, direction of change down): −0.5386
- logFC LCK ([1]; LCK, accession P06239, experiment wp152, direction of change down): −0.4468
- logFC of LCK (P06239) ([1]; experiment wp152): −0.4468
- logFC ([2]; experiment wp107): −0.8282
- logFC [2, 9]: −0.8282
- logFC [3, 10]: −0.4555
- logFC CDK11B [3, 10]: −0.4555
- logFC [3, 11]: −0.3542
- logFC CDK11B [3, 11]: −0.3542
- logFC [3, 12]: −0.4695
- logFC CDK11B [3, 12]: −0.4695
- logFC [3, 13]: −0.5122
- logFC CDK11B [3, 13]: −0.5122
- logFC [3, 14]: −0.644
- logFC CDK11B [3, 14]: −0.644
- logFC [3, 15]: −0.4624
- logFC CDK11B [3, 15]: −0.4624
- logFC ([3]; CDK11B P21127, experiment wp152): −0.5948
- logFC of CDK11B (P21127) ([3]; experiment wp152): −0.5948
- logFC ([4]; experiment wp152): −0.331
- logFC PLK1 ([4]; experiment wp152): −0.331

SMILES: Cc1ccc(NC(=O)c2cccc(C(F)(F)F)c2)cc1N1Cc2cnc(Nc3ccc(N4CCN(CCCOc5cccc6c5C(=O)N(C5CCC(=O)NC5=O)C6=O)CC4)nc3)nc2N(C)C1=O (stereo not shown) [DB0662]
- logFC LCK ([1]; LCK P06239-1, experiment wp168): −0.9078
- logFC LCK ([1]; LCK, accession P06239-1, experiment wp168, direction of change down): −0.9078
- logFC [3, 16]: −0.5946
- logFC CDK11B [3, 16]: −0.5946

SMILES: Cc1ccc(NC(=O)c2cccc(C(F)(F)F)c2)cc1N1Cc2cnc(Nc3ccc(N4CCN(CCCCC(=O)N[C@H](C(=O)N5C[C@H](O)C[C@H]5C(=O)N[C@@H](C)c5ccc(-c6scnc6C)cc5)C(C)(C)C)CC4)nc3)nc2N(C)C1=O [DB1113]
- logFC ([5]; experiment wp168): −0.766
- logFC ([5]; experiment wp168, direction down): −0.766
- logFC [3, 16]: −0.8736
- logFC CDK11B [3, 16]: −0.8736

SMILES: Cc1ncsc1-c1ccc([C@H](C)NC(=O)[C@@H]2C[C@@H](O)CN2C(=O)[C@@H](NC(=O)CCOCCOCCN2CCN(c3ccc(Nc4ncc(Cl)c(Nc5ccccc5S(=O)(=O)C(C)C)n4)cc3)CC2)C(C)(C)C)cc1 [FMF.06.098.1]
- logFC ([5]; experiment wp108): −0.4347
- logFC ([5]; experiment wp108, direction down): −0.4347
- logFC ([5]; experiment wp131): −0.4637
- logFC ([5]; experiment wp131, direction down): −0.4637
- logFC ([6]; experiment wp131): −0.3535
- logFC CDK1 ([6]; experiment wp131): −0.3535

SMILES: CNC(=O)c1ccccc1Nc1cc(Nc2ccc(N3CCN(CCOCCOCCNC(=O)CNc4cccc5c4C(=O)N(C4CCC(=O)NC4=O)C5=O)CC3)cc2OC)ncc1C(F)(F)F (stereo not shown) [MFH.5.103.1]
- logFC ([5]; experiment wp076): −0.4142
- logFC ([5]; experiment wp076, direction down): −0.4142

SMILES: CCc1cnn2c(N(Cc3ccc(N)nc3)C(=O)CCOCCOCCOCCNC(=O)CNc3cccc4c3C(=O)N(C3CCC(=O)NC3=O)C4=O)cc(N3CCCC[C@H]3CCO)nc12 (stereo partly shown) [MFH.5.115.2]
- logFC ([4]; experiment wp076): −0.56
- logFC PLK1 ([4]; experiment wp076): −0.56

SMILES: O=C1CCC(N2C(=O)c3cccc(NCCCCCCCCN4CCC(NC(=O)c5[nH]ncc5NC(=O)c5c(Cl)cccc5Cl)CC4)c3C2=O)C(=O)N1 (stereo not shown) [MFH.5.126.1]
- logFC ([4]; experiment wp076): −1.071
- logFC PLK1 ([4]; experiment wp076): −1.071

SMILES: Cn1c(=O)c(-c2c(Cl)cccc2Cl)cc2cnc(Nc3ccc(OCCNC(=O)CCCCCCNC(=O)COc4cccc5c4C(=O)N(C4CCC(=O)NC4=O)C5=O)cc3)nc21 (stereo not shown) [SB1.G.192.1]
- logFC LCK ([1]; LCK P06239-1, experiment wp081): −1.748
- logFC LCK [1, 17]: −1.748

SMILES: CC(C)S(=O)(=O)c1ccccc1Nc1nc(Nc2ccc(N3CCN(CCOCCNC(=O)CNc4cccc5c4C(=O)N(C4CCC(=O)NC4=O)C5=O)CC3)cc2)ncc1Cl (stereo not shown) [SK.3.91]
- logFC LCK ([1]; LCK P06239-1, experiment wp160, 2 hr): −0.4627
- logFC LCK [1, 7]: −1.173
- logFC LCK ([1]; LCK, accession P06239-1, experiment wp160, 2 hr, direction of change down): −0.4627
- logFC LCK [1, 8]: −1.173
- logFC ([2]; experiment wp103): −0.6497
- logFC ([2]; experiment wp103, direction down): −0.6497
- logFC ([2]; experiment wp107): −1.146
- logFC [2, 9]: −1.146
- logFC ([5]; experiment wp016, 1 uM): −0.3924
- logFC ([5]; experiment wp016, 1 uM, direction down): −0.3924
- logFC ([4]; experiment wp133, 1 hr): −0.5591
- logFC PLK1 ([4]; experiment wp133, 1 hr): −0.5591
- logFC ([4]; experiment wp133, 2 hr): −0.5804
- logFC PLK1 ([4]; experiment wp133, 2 hr): −0.5804
- logFC ([4]; experiment wp133, 4 hr): −0.7482
- logFC PLK1 ([4]; experiment wp133, 4 hr): −0.7482

SMILES: CC(C)S(=O)(=O)c1ccccc1Nc1nc(Nc2ccc(N3CCN(CCOCCOCCNC(=O)CNc4cccc5c4C(=O)N(C4CCC(=O)NC4=O)C5=O)CC3)cc2)ncc1Cl (stereo not shown) [TL12.186]
- logFC ([2]; experiment wp137): −2.11
- logFC [2, 18]: −2.11
- logFC ([5]; experiment wp137): −0.3334
- logFC [5, 18]: −0.3334

SMILES: CC(C)S(=O)(=O)c1ccccc1Nc1nc(Nc2ccc(N3CCN(CCOCCOCCC(=O)NCCNc4cccc5c4CN(C4CCC(=O)NC4=O)C5=O)CC3)cc2)ncc1Cl (stereo not shown) [TL13.97]
- logFC ([2]; experiment wp137): −1.712
- logFC [2, 18]: −1.712

SMILES: Cc1ccc(C(=O)Nc2ccc(CN3CCN(CCOCCOCCNC(=O)CNc4cccc5c4C(=O)N(C4CCC(=O)NC4=O)C5=O)CC3)c(C(F)(F)F)c2)cc1C#Cc1cnc2cccnn12 (stereo not shown) [TL13.150]
- logFC LCK ([1]; LCK P06239-1, experiment wp081): −0.7129
- logFC LCK [1, 17]: −0.7129

SMILES: NC(=O)c1c(F)cccc1Nc1nc(Nc2ccc(S(=O)(=O)NCCOCCOCCOCCOCCNc3cccc4c3C(=O)N(C3CCC(=O)NC3=O)C4=O)cc2)ncc1Br (stereo not shown) [TMX.02.138]
- logFC ([6]; experiment wp146): −1.641
- logFC CDK1 ([6]; experiment wp146): −1.641

SMILES: Cc1cc(Nc2ncc(Br)c(Nc3cccc(F)c3C(N)=O)n2)ccc1S(=O)(=O)NCCOCCOCCOCCOCCNc1cccc2c1C(=O)N(C1CCC(=O)NC1=O)C2=O (stereo not shown) [TMX.02.174]
- logFC ([2]; experiment wp146): −0.9362
- logFC ([2]; experiment wp146, direction down): −0.9362
- logFC ([6]; experiment wp146): −1.629
- logFC CDK1 ([6]; experiment wp146): −1.629
